From patent publication US6642201B1, “Use of a dipeptide for stimulating repair processes” (priority 1998, dated 2003)
Several values for one entry are separate records, joined by “and”; a condition that tells them apart may be missing. Equal values may be shown once. Marks after values point to notes of the source that are not given here. Where a SMILES comes first, the peptide text is derived from it.

Legend:
[1] = test system: duodenum mucous membrane cells; assay: Regeneration of the intestinal mucous membrane after radiation injury; assay type: in vivo, white male rats of the Wistar line; details: 8th day
Experimental: The work has been performed on 24 two-month-old white male rats of the Wistar line, weighing 90-100 grams. The following three groups of animals were researched;
2 group—control (irradiated animals);
3 group—irradiated animals injected with L-Lys-L-Glu dipeptide.
A general single γ—irradiation of 6 Gy, inducing “the syndrome of intestinal death”, was made by the cobalt apparatus GUB 20000, with the dose capacity of 200 rad/min.
L-Lys-L-Glu dipeptide was injected 24 hours after the irradiation—0.5 μkg in 0.5 ml of the […]—intraperitoneally during 5 days. The animals from the first and second groups received the […] by the same scheme.
The study of L-Lys-L-Glu dipeptide's action has been performed on the proximal section of the duodenum of irradiated animals. The animals were killed under nembutal narcosis (50 mg/kg on the 8th day after irradiation (beginning of the period of repair regeneration). Pieces of the duodenum were being preserved during 24 hours by Karnovsky for the electronic microscopy.
The ultra-structural research was conducted under the JEM-100S microscope (JEOL, Japan) at the ultra-thin microscopic sections prepared on the LKB-7A ultra-microtome (LKB, Sweden) and contrasted by uranilacetatc and lead cytrate.
Mast cells were selectively stained with 1% solution of toluidine blue (Fluka) in 0,5 M HCl, with pH—0.5 (8,9).
To reveal MTL-positive cells, were used rabbits' antibodies to metal-tioneins (1-2000).
Immunohistochemical identification of antigenes at the histological sections was made according to the main requirements to immune-peroxydase methods (10,11).
The quantity research was conducted with the help of the system of computer analysis of microscopic images—IMSTAR (Imstar, France)—the Morphostar-2 and Colquant-2 license applied software were employed, in accordance with the general principles of stereology in morphometry (12, 13). For each animal, the calculation of corresponding structures was made In ten visual eye sights by three sections of the studied organ. The mitotic index (1mit) and the index of proliferating ability (Ipcna) of the duodenum cells were defined in 10-15 standard sections of crypts, with the overall contents of not less than 1000 nuclei of enterocytes. The test area for finding serotonin-positive and mast cells covered not less than 3 mm^2. MML-positive cells were counted in 100 duodenum crypts.

[2] = test system: inflammation of salivary glands and sialolithic disease; assay: Clinical treatment of inflammation of salivary glands and sialolithic disease; assay type: in vivo, patients; details: 1 μkg i.m. daily for 5 days
Excerpt: 45 patients were being observed. Of these, 27 people had inflammations of the salivary glands, 4 of whom had parotitis. 18 people suffered sialolithic disease of the submandibular gland. The average age of the patients was 35-40. All the patients with the sialolithic disease had the stones extracted. 30 patients (15 of them had inflammation of the salivary gland and the other 15 had sialolithic disease) underwent daily intramuscular injections of L-Lys-L-Glu dipeptide 1 μkg. for 5 days.
The patients of the control group underwent standard treatment: antibacterial, desensitization therapy, iodine-dimexid dressings, physical therapy (ultrasonics, 5-10% potassium iodide electrotherapy on the gland area), local treatment (washing the glands with the solution of antiseptics and antibiotics).

[3] = test system: sluggish-granulating wounds and phlegmon of the maxillofacial zone; assay: Clinical complex treatment of pyo-inflammatory diseases of different localization; assay type: in vivo; details: patients, 1 μkg i.m. every day during ten days
Experimental: 1 μkg of the preparation was injected intramuscularly, every day during ten days. Effectiveness of the treatment was evaluated in dynamics according to the changes in activity of wound enzymes and time of healing.

[4] = test system: sluggish-granulating wounds after surgical treatment for cancer; assay: Clinical complex treatment of cancer patients with post-operative complications; assay type: in vivo
Experimental: In the pre-operation period, the patients underwent a radical-scheme, radiation therapy employing large fields of complex configuration on the linear electron accelerator (its power is 4,3 Mev) and gamma-therapy device “Rokus-M” in the brake mode. In particular cases, one of the components of the combined treatment was chemotherapy.
Beginning from the third day after the operation, 1 μkg of L-Lys-L-Glu dipeptide was injected intramuscularly daily during 10 days.

[5] = test system: purulent incised crushed wounds of the femural soft tissues; assay: Healing of purulent incised crushed wounds of the soft tissues; assay type: in vivo, shinshilla rabbits; parameters: key: 1 point - absent; 2 points - single (traces); 3 points - few; 4 points - diffuse (moderately); 5 points - many-,; 6 points - very many; details: rabbits, 1 μkg i.m. daily 5 days
Excerpt: The efficacy of L-Lys-L-Glu dipeptide was estimated on the model of purulent incised crushed wounds of the femural soft tissues in shinshilla rabbits of both sexes with body weight 2-3 kg. Therefore, the rabbits underwent shaving in the area of femural soft tissues with subsequent incision 5 cm long and 2 sm deep. Soft tissues (muscles, subcutaneous fat) were crushed with Kocher 's forcepts and infected with the pathogenic mixture Staphylococcus aureus, strain 186. Afterwards, the wound was sutured. In 72 hours the sutures were lifted; and the wound was treated with 3% solution of hydrogen peroxide.
The animals of experimental group were injected intramuscularly every day for five days with dipeptide L-Lys-L-Glu in a single dose 1 μkg per injection. Control rabbits were injected with sodium chloride solution according to the same scheme. In the process of treatment the wounds were treated with antiseptic remedies for external use.
The estimation of L-Lys-L-Glu dipeptide efficacy in the dynamics of the inflammatory process regression was based on the terms of crust rejection and wound clearance from the pyo-necrotic mass, and appearance of the granular tissue in the wound and beginning of edge epithelization. […] The activity of tissue enzymes was also estimated (5,6,7).

[6] = irradiated rats 6 Gy, 0.5 μkg i.p. during 5 days, duodenum
[7] = irradiated rats 6 Gy, 0.5 μkg i.p. during 5 days, duodenum crypts
[8] = patients with sialolithic disease

## NCCCC[C@H](N)C(=O)N[C@@H](CCC(=O)O)C(=O)O [L-Lys-L-Glu dipeptide, L-lysil-L-glutamic acid] (H-Lys-Glu-OH)
[1]; [6]
  NMC/1 mm^2 (quantity of mast cells/1 square mm): 24 ± 3 /1 mm^2
  NMT/100 crypts (quantity of L-positive cells in 100 intestine crypts): 102 ± 9 /100 crypts
  Pser (volume density of serotonin-immunopositive cells): 0.71 ± 0.09%
[1]; [7]
  IPCNA (index of cell proliferative ability-PCNA): 49.89% and 49.8 ± 0.7 %
  Imit (mitotic index): 4.7% and 4.7 ± 0.1%
[1]; irradiated rats
  MTL-positive cells in the crypts' base: tendency to the increase of number and intensity of immune-staining
  quantitative density of enterochromaffinn cells: practically gets equal to that of healthy animals
[2]; patients with inflammation of the salivary gland
  pains in the gland and discharge of pus: on the fourth-fifth day after the treatment, stopped having pains in the gland and the discharge of pus from the gland ducts
[2]; [8]
  discharge of pus from the gland ducts: stopped having the discharge of pus from the gland ducts
  swelling and infiltration of soft tissues and mucous membrane of the mouth cavity: resolved on the third fourth day after the operation
[2]; patients
  period of treatment: shortened the period of treatment
[3]
  activity of wound enzymes: increased the activity of wound ferments in the first phase of the wound process
  clearance of the wounds from necrotic tissues: accelerate clearance of the wounds from necrotic tissues
  treatment period: reduction of the treatment period
[4]; 1 μkg i.m. daily during 10 days from third day after operation
  edema and pain in the wound area: helped to reduce edema and pain in the wound area
[4]; complex treatment
  time of treatment: reduces the time of their treatment
[5]; day 6
  Alcaline phosphotase in leukocytes: 6*
  Alcaline phosphotase in vessels: 6*
[5]; day 14
  Acid phosphotase in histiocytes: 6*
  Alcaline phosphotase in leukocytes: 6*
[5]; day 28
  Alcaline phosphotase in leukocytes: 6
  Alcaline phosphotase in vessels: 4
[5]; day 40
  Alcaline phosphotase in vessels: 4*
